Laboratory results as given in a melting point compilation (Tetko et al.; mined from patent text by program, amines drawn as free bases though some values may be those of a salt).

Row | Structure (SMILES) | melting point [°C]
1 | CCCc1nc2c(N)nc3ccccc3c2n1OCc1ccccc1 | 164 to 166
2 | CC#CC(=O)N[C@H]1CC[C@H](CCN2CCN(c3nccc4c3CCO4)CC2)CC1 | 193
3 | COc1ccc2c(c1)[nH]c1cc(OC)ccc12 | 273 to 274
4 | CCCCCCCCCCCCCCOc1cc(OCCCCCCc2cccc(OCc3ccccc3)c2OCc2ccccc2)cc(C(=O)O)c1 | 75 to 77
5 | CN1CCN(Cc2ccc(COc3cccc4c3CN(C3CCC(=O)NC3=O)C4=O)cc2)CC1 (configuration not stated) | 188 to 190
6 | CN1CCN(S(=O)(=O)c2cc(NC(=O)c3cnn4c(C(F)F)cc(-c5ccc(C(F)(F)F)cc5)nc34)c(Cl)s2)CC1 | 293
7 | Cc1nc2c(C=O)cccn2c1C | 145 to 148
8 | COc1ccccc1N1CCN(C2(C(=O)c3ccc(Cl)cc3)CC2)CC1 | 103 to 104
9 | Cc1ccc(N2CCCN(c3ccnc4sc(C(N)=O)c(N)c34)CC2)nc1 | 205 to 208
10 | COC(=O)c1ccc(C2(C(=O)Oc3ccc(C(=O)NO)cc3)CCCCC2)cc1 | 129 to 131
11 | O=C(O)c1nccnc1C(=O)Nc1ccc(Cl)cn1 | 222
12 | O=C(c1c[nH]c2ccc(Br)cc12)C(F)(F)F | 254
13 | O=C1C2C3C=CC(C4CC34)C2C(=O)N1c1ccc([N+](=O)[O-])cc1 (configuration not stated) | 210 to 212
14 | CC(C)Nc1nc(-n2cccn2)nc(Cl)c1-c1c(F)cccc1Cl | 94 to 98
15 | COc1nc(OC)nc(C2(c3nc(OC)nc(OC)n3)OC(=O)c3c(Cl)cccc32)n1 | 126 to 127
16 | CNc1nn2c(N)nnc2c2c1CCCC2 | 295 to 297
17 | CCn1c(=O)[nH]c2cnc(-c3ccccc3)nc21 | 268 to 270
18 | COC(=O)C1=C(C)Nc2c(c(-c3ccccc3)nn2C)C1c1ccc(F)cc1 (configuration not stated) | 181 to 183
19 | Oc1cnccc1CCCOc1cccnc1Cc1cccc(Br)c1 | 138 to 139
20 | COC(=O)C1OC(OC(=N)C(Cl)(Cl)Cl)C(OC(C)=O)C(OC(C)=O)C1OC(C)=O (configuration not stated) | 108
21 | OCc1c(F)c(F)c(Br)c(F)c1F | 60 to 62
22 | Nc1ccc(OCc2ccccc2)c(Cl)c1 | 54
23 | COCc1nnc(N)s1 | 177 to 179

Row | Structure (SMILES) | melting point [°C]
24 | Cc1nc2c(OCc3c(N)cccc3Cl)cccn2c1Br | 177 to 178
25 | COc1cccc(CCN2C(=O)COc3ccc(C=C4SC(=S)NC4=O)cc32)c1 | 233 to 236
26 | COc1ccnc(-c2cccs2)c1 | 43 to 45
27 | Nc1nccc(-c2cccc(OCC(O)CN3CCN(c4ccc(Cl)cc4)CC3)c2)n1 (configuration not stated) | 141 to 142
28 | ON=Cc1ccc2c(c1)ncn2-c1cccc(CNCc2ccc(F)c(F)c2)c1 | 165 to 167
29 | COc1cc(Nc2nccc(-c3ccc4ccccc4c3)n2)cc(OC)c1OC | 156
30 | CCCC(c1ccc(C)cc1)n1cncc1C(=O)OC (configuration not stated) | 141 to 143
31 | O=C(c1c(-c2ccccc2)oc2ccccc2c1=O)N1CCN(c2ccccn2)CC1 | 178 to 181
32 | O=c1c(-c2cc(=O)c3c(O)cccc3o2)cn(-c2ccccc2)c2ccccc12 | > 300
33 | CC(C)(C)OC(=O)N1CCc2cc(OCc3ccccc3)c(OCc3ccccc3)cc2C1Cc1ccc(N)c(I)c1 (configuration not stated) | 169 to 171
34 | COc1cc(OCc2ccccn2)ccc1/C=C/c1cc(/C=C/c2ccc3c(c2)OCO3)n[nH]1 | 218 to 220
35 | CC[C@H]1c2cc(F)ccc2-c2ccccc2N1C(=O)c1ccc(O)cc1 | 103 to 104
36 | Fc1cc(F)cc(Cc2cccnc2S)c1 | 195 to 197
37 | Cc1nnn(-c2ccc(F)cc2)c1CCl | 70 to 71
38 | Cc1nnc(-c2ccc3occ(-c4cnn(Cc5cccnc5)c4)c3c2)o1 | 137 to 138
39 | Clc1ccc2c(c1)C(c1ccco1)=NCC1CSCCN21 (configuration not stated) | 138 to 140
40 | CN1CC[C@@H](c2c(O)cc(O)c3c(=O)cc(-c4ccccc4I)oc23)[C@@H]1CO | 233 to 235
41 | CN(C)C1CCN(C2CCN(c3ncc4ncnc(Nc5ccc(F)c(Cl)c5)c4n3)CC2)CC1 | 160 to 165
42 | Cc1oc2cc3sc4ccccc4c3c(-c3cc(I)c(O[C@H](C)C(=O)O)c(I)c3)c2c1C | 218 to 219
43 | Nc1cccc(-c2ccc(CCN3CCN(CCc4ccccc4)CC3)c3ccccc23)n1 | 80 to 105
44 | CN1c2ccccc2Sc2cc(C=Cc3ccc(-c4ccc(C=Cc5ccc6c(c5)Sc5ccccc5N6C)cc4)cc3)ccc21 | 380
45 | CSc1nc2c(cnn2CC(O)c2ccccc2)c(=O)[nH]1 (configuration not stated) | 208 to 209
46 | COc1ccc(-c2cc(CN3C(=O)c4ccccc4C3=O)c(=O)n(Cc3ccc(Cl)cc3)n2)cc1F | 212 to 214

Row | Structure (SMILES) | melting point [°C]
47 | Cn1c(-c2ccc3ccccc3c2)n[nH]c1=S | 223 to 225
48 | C(=NNc1cc(N2CCOCC2)nc(OCCc2ccccn2)n1)c1c[nH]c2ccccc12 | 160 to 165
49 | Cc1cc2cc(C#N)c(Cl)nc2s1 | 171 to 173
50 | Cc1cc(NCCO)c2nn(C)c(C)c2n1 | 186 to 189
51 | O=C1C=CC(=O)c2cc(C(F)(F)F)c(C(F)(F)F)cc21 | 91 to 94
52 | COC(=O)Nc1nc2cc(C(c3cccc(Cl)c3)n3ccnc3)ccc2[nH]1 (configuration not stated) | 168
53 | CSCC[C@H](NC(=O)c1cc(NC(Cn2ccnc2)c2ccc(F)cc2)ccc1Cc1ccc(F)cc1)C(=O)O (some centres not stated) | 130 to 135
54 | Cc1nc2n(c(=O)c1CCBr)CCCS2 | 215
55 | Fc1ccc(N=c2sc3ccc(Cl)cc3s2)cc1 | 101 to 102
56 | N#Cc1nn(-c2c(Cl)cc(C(F)(F)F)cc2Cl)c(N)c1C(=O)CBr | 190 to 192
57 | Cc1cc(C)cc(SN2C(=O)CCC2=O)c1 | 131 to 134
58 | NS(=O)(=O)c1ccc(NC(=O)c2ccc(F)cc2SSc2cc(F)ccc2C(=O)Nc2ccc(S(N)(=O)=O)cc2)cc1 | 309 to 310
59 | CNC(=O)c1cccc(Cl)c1Nc1nc(Nc2ccc3c(c2)CCCC(=O)N3C)ncc1Cl | 145 to 160
60 | CC(C)(C)c1cc(C[PH](=O)O)cc(C(C)(C)C)c1O | 147 to 149
61 | CCCn1c(=O)n(CCC)c2cc3c(N4CCN(C(=O)Nc5ccc(Oc6ccccc6)cc5)CC4)ncnc3cc21 | 179 to 180
62 | Cc1ccc(C)n1-c1cc(F)c(C2=CCSCC2)c(F)c1 | 118 to 119
63 | CCn1cc(-c2nc(C#N)c(N)nc2-c2ccccc2)ccc1=O | 193 to 199
64 | CN(C)Cc1sc(C(c2ccc(Cl)cc2)c2c(Cl)cc(-n3ncc(=O)[nH]c3=O)cc2Cl)nc1-c1ccccc1F (configuration not stated) | 250
65 | NC(=N[N+](=O)[O-])NCCC[C@@H](NC(=O)C(c1ccccc1)c1ccccc1)C(=O)NCc1ccc(COC(=O)Oc2ccccc2)cc1 | 186 to 187
66 | COc1c(Cl)c(Cl)c2c(-c3ccccc3F)noc2c1Cl | 120 to 140
67 | Cc1ccccc1OCCCc1sc(-n2ccnc2C)nc1-c1ccc(Cl)cc1 | 112 to 113
68 | CN(C)c1ccc(-c2nc(Cl)c(C#N)n2Cc2ccccc2)cc1 | 125 to 127

The remaining lines, values ahead:

Row | melting point [°C] | Structure (SMILES)
69 | 77 to 79 | CCOC(=O)c1c(OCC)c2ccc(C)nc2n(CC)c1=O
70 | 51.6 | CCCCCCCCOC(=O)Oc1ccc(-c2ccc(C#N)cc2)cc1
71 | 138 to 139 | CNS(=O)(=O)c1cc(C(=O)OC)cc(N2CCCC2)c1Oc1ccccc1
72 | 76.5 to 78 | C#CC(=O)NC[C@@H]1CN2C(=O)C[C@H]2O1 (racemic)
73 | 165 to 166 | CC1(C)CCC(C)(C)c2cc(C(O)CNc3ccc(C(=O)O)c(O)c3)ccc21 (configuration not stated)
74 | 254 to 256 | O=c1oc2c(O)c(O)ccc2c2ccccc12
75 | 116 | CCCCc1[nH]c2ccc([N+](=O)[O-])cc2c1C(=O)c1ccc(OCCCN(CCCC)CCCC)cc1
76 | 113 to 115 | CCOC(=O)c1sc2cc(COc3cccnc3)ccc2c1S(=O)c1cccc(OC)c1 (configuration not stated)
77 | 67 to 74 | COc1cc2c(cc1Nc1ncc(Cl)c(Nc3ccccc3S(=O)(=O)N3CCCC3)n1)CCN(CC(=O)N(C)C)CC2
78 | 97 to 100 | COc1ccc(Cl)cc1C(=O)NCCc1ccc(CCCCCCCCCC(=O)O)cc1
79 | 56.4 | CCN(CC)C(=O)c1ccc(S(=O)(=O)N(CC)CC)o1
80 | 110 to 112 | CC(C)Cc1nn(C)c(=O)c2cc(C(O)c3cccc4ccccc34)oc12 (configuration not stated)
81 | 121 | CCOC(=O)c1oc(-c2ccccc2)cc(=O)c1Cl
82 | 148 to 149 | CCCCCS(=O)(=O)NC(=O)c1ccc2nc(C)n(Cc3ccc(N(C)CC)cc3Cl)c2n1
83 | 222 to 224 | Cc1cc(NC(=O)c2cc(F)cc(N(C3CN(C(c4ccc(Cl)cc4)c4ccc(Cl)cc4)C3)S(C)(=O)=O)c2)no1
84 | 134 to 136 | Cc1cc(C)c(C(=O)c2cccc(-n3ccnc3)c2)c(C)c1
85 | 108 to 110 | Cc1c(NC(=O)CC(C)(C)C)cc2c(c1C)OC(C)(C)C2(O)c1ccco1 (configuration not stated)
86 | 255 to 256 | CN(c1cccc2cc(-c3ncc(CCc4n[nH]c(=O)o4)s3)[nH]c12)S(=O)(=O)c1cccs1
87 | 141 to 142 | CN(C)C(=O)c1ccc(C=CC(=O)c2cccc(OCc3ccc4ccc(Cl)cc4n3)c2)o1
88 | 185 to 187 | CC(Oc1ccc2oc3cc(Cl)ccc3c2c1)C(N)=O (configuration not stated)
89 | 113 to 114 | Cc1cc(C)nc(CCOc2ccc(NC(=O)N(C)C)cc2)c1
90 | 216 to 218 | CCNc1nc(-c2ccc(NC(=O)NCc3cccnc3)cc2)ccc1C(=O)O
91 | 164 to 165 | O=C(O)CCc1cnoc1-c1ccc(Br)cc1
92 | 58 to 63 | CCCn1nc(C(C)C)c(C(=O)OCOC(C)=O)c1Cc1ccc(-c2ccccc2-c2nnn[nH]2)cc1
93 | 93 | CSN(C)C(=O)Nc1ccc(Cl)c(Cl)c1
94 | 136 to 137 | COC(=O)COc1ccc(-c2ccc[nH]2)cc1
95 | 206 to 207 | COc1ccc(-c2csc(C=CC(=O)O)c2)cc1C(C)(C)C
96 | 145 to 147 | CCc1ccc(S(C)(=O)=O)c(C(=O)c2ccc(F)cc2)c1
97 | 95 to 97 | CC(=Cc1cccc(F)c1)C(=O)O
